Measured values as given in patent publication US20160279135A1, “THERAPIES FOR TREATING MYELOPROLIFERATIVE DISORDERS” (Gilead Sciences, Inc., priority 2013, published 2016).

Tests used:
pS6 Ser235/236 [1] = test: Western blot of S6 phosphorylation in BaF3/MPL cells; type: cell-based; settings: 2 h, then TPO 50 ng/mL 10 min, vs vehicle
Description: (§1) In addition, Compound B was examined for the effects on the PI3K signaling pathway by determining the levels of AKT and S6 phosphorylation with or without TPO activation. Two cell lines, BaF3/MPL and UT-7/TPO sensitive or responsive to TPO activation were used. The cells were starved (i.e. growing on medium having less FBS) in […] FBS/RPMI for two hours before treated with 0.1, 1.0, or 2.0 μM of Compound B or vehicle (0.1% DMSO in RPMI) for 2 hours at 37° C. To examine the TPO-activated phosphorylation, the cells were then treated or activated with 50 ng/mL of human recombinant TPO (Peprotech) for 10 minutes at 37° C. The TPO activation or treatment may reflect the conditions in diseased cells as the PI3K pathway is activated by TPO in myelofibrosis. After treating with compound and/or TPO, the cells were collected, lysed by lysis buffer (Cell Signaling), separated by SDS-PAGE, and analyzed by the Western blot using antibodies specific to p-AKT Ser473 or pS6 Ser235/236 (Cell Signaling). The phosphorylation levels in treated cells were calculated and compared to those of untreated cells (i.e. vehicle as negative control).

clinical = settings: human, in vivo
Excerpt: For in vitro or in vivo studies, the effect amount of Compounds A, B, C, D, E, or ruxolinitib may be adjusted according to the experimental condition. Similarly, the effect amount of Compounds D1, D2, D3, D4, D5, D6, D7, D8, D9, E1, E2, E3, E4, E5, E6, E7, E8, E9, or F, may be adjusted according to the experimental condition for in vitro or in vivo studies. For example, compounds may be used in the amount of 0.001, 0.002, 0.003, 0.004, 0.005, 0.006, 0.007, 0.008, 0.009, 0.01, 0.02, 0.03, 0.04, 0.05, 0.06, 0.07, 0.08, 0.09, 0.1, 0.2, 0.3, 0.4, 0.5, 0.6, 0.7, 0.8, 0.9, 1.0, 1.5, 2.0, 2.5, 3.0, 3.5, 4.0, 5.0, 6.0, 7.0, 8.0, 9.0, or 10.0 μM. In some studies, the in vitro doses of the compounds may be calculated to correspond to the clinical doses of the compounds. The calculation may consider various factors, such as protein binding and plasma concentration. […] It is understood that the in vitro doses may differ, depend on the assay condition and other calculation factors, and that the clinical doses may differ depend on the disease indication and the patient condition.
In this study, PBMCs were isolated from the whole blood from five MF patients receiving chronic ruxolitinib treatment (rux 1-rux 5). The cells were treated with either vehicle, ruxolitinib, and/or Compound B for 2 hours then stimulated with TPO (50 ng/mL) for 10 minutes. Ruxolitinib at the dose of 1 or 20 nM and Compound B at the dose of 45, 200, or 700 nM were used.
Next, Pfeiffer cells were treated with IL6 (0 or 3 ng/mL), Compound A (0, 136, 272, or 695 nM), and/or Compound B (0, 74, 200, or 421 nM) (n=4 per group) for 96 hours. The doses in this assay may correspond to those used in a clinical setting. […] In addition, the in-vitro dose of 136 nM Compound A may correspond to the potential Caverage detected in patients receiving Compound A at 300 mg once a day.

pS6 Ser235/236 [2] = test: Western blot of S6 phosphorylation in UT-7/TPO cells; type: cell-based; settings: 2 h, then TPO 50 ng/mL 10 min, vs vehicle
Description: as §1

CC[C@H](Nc1ncnc2[nH]cnc12)c1nc2cccc(F)c2c(=O)n1-c1ccccc1 [Compound B, (S)-2-(1-((9H-purin-6-yl)amino)propyl)-5-fluoro-3-phenylquinazolin-4(3H)-one]
reduced p-S6 levels (pS6 Ser235/236 [1]; 0.1 μM): 24%
reduced p-S6 levels (pS6 Ser235/236 [1]; 1.0 μM): 27%
reduced p-S6 levels (pS6 Ser235/236 [1]; 2.0 μM): 41%
in-vitro dose corresponding to the potential Caverage (clinical): 200 nM
in-vitro dose corresponding to the potential Cmin (clinical): 74 nM
Cmax (clinical; 150 mg): 421 nM
reduced p-S6 levels (pS6 Ser235/236 [2]; 0.1 μM): 13%
reduced p-S6 levels (pS6 Ser235/236 [2]; 1.0 μM): 28%
reduced p-S6 levels (pS6 Ser235/236 [2]; 2.0 μM): 48%
